Each compound was assayed on M17_3TAU(P301L) cells (assay: TAU-induced cytotoxicity (LDH) in the neuroblastoma tauopathy model). Conditions: Homo sapiens, 168 h, inhibition of TAU-induced toxicity, 7 days retinoic acid differentiation, LDH readout.
Format: cell-based
Method in brief: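 Stably transfected BE-M17 cells expressing human TAU-P301L, seeded in serum-free detection medium, then differentiated with 2.5 μM RA (added in equal volume) for 7 days at 37° C/5% CO2 to induce TAU aggregation. Cytotoxicity = supernatant LDH increase over total LDH; EC50 from dose-dependent inhibition curves.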

Row | Structure (SMILES) | EC50
1 | O=C(Cc1ccc(Cl)cc1)N1CC2(CN(Cc3ccccc3OC(F)(F)F)C2)C1 [Cpd B034, 2-(4-chlorophenyl)-1-(6-(2-(trifluoromethoxy)benzyl)-2,6-diazaspiro[3.3]heptan-2-yl)ethanone] | 6.04 nM
2 | Cn1cnc(CN2CC3(C2)CN(C(=O)CC2CCC(F)(F)CC2)C3)c1 [Cpd B126] | 192 nM
3 | O=C(OC1CCC(F)(F)CC1)N1CC2(CN(Cc3ccc(F)cc3)C2)C1 [Cpd B133] | 2.9 nM
4 | O=C(Cc1ccc(Cl)cc1)N1CC2(CN(Cc3ccc(C(F)(F)F)o3)C2)C1 [Cpd B040, 2-(4-Chloro-phenyl)-1-[6-(5-trifluoromethyl-furan-2-ylmethyl)-2,6-diaza-spiro[3.3]hept-2-yl]-ethanone] | 40.4 nM
5 | Cc1nc(CN2CC3(C2)CN(C(=O)Nc2ccc(Cl)cc2)C3)cs1 [Cpd B452] | 94.5 nM
6 | O=C(CC1CCC(F)(F)CC1)N1CC2(CN(Cc3ncccc3F)C2)C1 [Cpd B464] | 40.1 nM
7 | Cc1cnc(CN2CC3(C2)CN(C(=O)NCc2ccc(F)cc2)C3)s1 [Cpd B440] | 260 nM
8 | O=C(Cc1ccc(F)cc1)N1CC2(CN(Cc3cccc(Cl)c3)C2)C1 [Cpd B011, 1-[6-(3-Chloro-benzyl)-2,6-diaza-spiro[3.3]hept-2-yl]-2-(4-fluoro-phenyl)-ethanone] | 2.07 nM
9 | O=C(Cc1cccc(Cl)c1)N1CC2(CN(Cc3ccc(F)cc3)C2)C1 [Cpd B433] | 469 nM
10 | Cc1[nH]cnc1CN1CC2(C1)CN(C(=O)CC1CCC(F)(F)CC1)C2 [Cpd B124] | 54.4 nM
11 | COc1ccc(CCNC2CC3(C2)CC(Nc2nc(Cc4ccc(Cl)cc4)ns2)C3)cc1OC (stereo not shown) [Cpd B335, N-(3-(4-chlorobenzyl)-1,2,4-thiadiazol-5-yl)-N′-(3,4-dimethoxyphenethyl) spiro[3.3]heptane-2,6-diamine] | 3 nM
12 | Cc1ccc(CCN2CC3(C2)CN(C(=O)Cc2ccc(Cl)cc2)C3)cc1 [Cpd B047, 2-(4-chlorophenyl)-1-(6-(4-methylphenethyl)-2,6-diazaspiro[3.3]heptan-2-yl)ethanone] | 13.6 nM
13 | O=C(Cc1ccc(Cl)cc1)N1CC2(CN(CCc3ccccc3)C2)C1 [Cpd B052, 2-(4-chlorophenyl)-1-(6-phenethyl-2,6-diazaspiro[3.3]heptan-2-yl)ethanone] | 15.9 nM
14 | Cn1ncc(CN2CC3(C2)CN(C(=O)OC2CCC(F)(F)CC2)C3)c1Cl [Cpd B144] | 86.5 nM
15 | Cc1cccnc1CN1CC2(C1)CN(C(=O)NCc1ccc(F)cc1)C2 [Cpd B443] | 171 nM
16 | Cc1ncc(CN2CC3(C2)CN(C(=O)CC2CCC(F)(F)CC2)C3)s1 [Cpd B456] | 73.9 nM
17 | Cc1nc(CN2CC3(C2)CN(C(=O)Cc2ccc(F)c(C(F)(F)F)c2)C3)cs1 [Cpd B101] | 76.6 nM
18 | O=C(Cc1ccc(Cl)cc1)N1CC2(CN(CCc3cccc(C(F)(F)F)c3)C2)C1 [Cpd B044, 2-(4-chlorophenyl)-1-(6-(3-(trifluoromethyl)phenethyl)-2,6-diazaspiro[3.3]heptan-2-yl)ethanone] | 16.1 nM
19 | FC(F)(F)c1ccccc1CNC1CC2(C1)CC(Nc1nc(Cc3ccc(Cl)cc3)ns1)C2 (stereo not shown) [Cpd B322, N-(3-(4-chlorobenzyl)-1,2,4-thiadiazol-5-yl)-N′-(2-(trifluoromethyl)benzyl) spiro[3.3]heptane-2,6-diamine] | 2.8 nM
20 | Cc1cc(CN2CC3(C2)CN(C(=O)Cc2ccc(F)cc2)C3)no1 [Cpd B021, 2-(4-Fluoro-phenyl)-1-[6-(5-methyl-isoxazol-3-ylmethyl)-2,6-diaza-spiro[3.3]hept-2-yl]-ethanone] | 167 nM
21 | Cc1cccnc1CN1CC2(C1)CN(C(=O)c1cc3ccccc3s1)C2 [Cpd B427] | 846 nM
22 | Cc1cccnc1CN1CC2(C1)CN(C(=O)Nc1ccc(Cl)cc1)C2 [Cpd B179] | 16.1 nM

Row | Structure (SMILES) | EC50
23 | Cc1cccnc1CN1CC2(C1)CN(S(=O)(=O)CCc1ccccc1)C2 [Cpd B211, 2-((3-methylpyridin-2-yl)methyl)-6-((phenethyl)sulfonyl)-2,6-diazaspiro[3.3]heptane] | 94.8 nM
24 | COc1cccc(CN2CC3(C2)CN(C(=O)CC2CCCC2)C3)c1 [Cpd B455] | 74.5 nM
25 | Clc1ccc(CNC2CC3(C2)CC(Nc2nc(Cc4ccc(Cl)cc4)ns2)C3)cc1 (stereo not shown) [Cpd B303, N-(4-chlorobenzyl)-N′-(3-(4-chlorobenzyl)-1,2,4-thiadiazol-5-yl) spiro[3.3]heptane-2,6-diamine] | 11.8 nM
26 | O=C(NC1CCC(F)(F)CC1)N1CC2(CN(Cc3ccccc3C(F)(F)F)C2)C1 [Cpd B207] | 17.8 nM
27 | Cc1ccccc1CC(=O)N1CC2(CN(Cc3ncccc3C)C2)C1 [Cpd B430] | 690 nM
28 | Cc1cc(CN2CC3(C2)CN(C(=O)CC2CCC(F)(F)CC2)C3)n[nH]1 [Cpd B449] | 119 nM
29 | Cn1cc(CN2CC3(C2)CN(C(=O)NCC2CCC(F)(F)CC2)C3)c(Cl)n1 [Cpd B204] | 54.9 nM
30 | O=C(NC1CCC(F)(F)CC1)N1CC2(CN(Cc3ccc(Cl)cn3)C2)C1 [Cpd B457] | 71.5 nM
31 | COc1cccc(OC)c1CNC1CC2(C1)CC(Nc1nc(Cc3ccc(Cl)cc3)ns1)C2 (stereo not shown) [Cpd B311, N-(3-(4-chlorobenzyl)-1,2,4-thiadiazol-5-yl)-N′-(2,6-dimethoxybenzyl) spiro[3.3]heptane-2,6-diamine] | 4 nM
32 | CC(C)(C(=O)c1ccccc1)N1CC2(CN(C(=O)Cc3ccc(Cl)cc3)C2)C1 [Cpd B050, 2-(6-(2-(4-chlorophenyl)acetyl)-2,6-diazaspiro[3.3]heptan-2-yl)-2-methyl-1-phenylpropan-1-one] | 72.8 nM
33 | Cc1csc(CN2CC3(C2)CN(C(=O)CC2CCC(F)(F)CC2)C3)n1 [Cpd B445] | 157 nM
34 | Cc1nc(CN2CC3(C2)CN(C(=O)OCC24CC(F)(C2)C4)C3)cs1 [Cpd B136] | 671 nM
35 | O=C(Cc1ccc(F)cc1)N1CC2(CN(Cc3cscn3)C2)C1 [Cpd B022, 2-(4-Fluoro-phenyl)-1-(6-thiazol-4-ylmethyl-2,6-diaza-spiro[3.3]hept-2-yl)-ethanone] | 149 nM
36 | O=C(OCC12CC(F)(C1)C2)N1CC2(CN(Cc3ccc(F)cc3)C2)C1 [Cpd B129] | 97 nM
37 | COc1ccc(CNC(=O)N2CC3(CN(Cc4ncccc4C)C3)C2)cc1 [Cpd B180] | < 0.19 nM
38 | Cc1cccnc1CN1CC2(C1)CN(C(=O)CCC1CCCCC1)C2 [Cpd B081] | 9.69 nM
39 | COc1ccc(OC)c(CNC2CC3(C2)CC(Nc2nc(Cc4ccc(Cl)cc4)ns2)C3)c1 (stereo not shown) [Cpd B327, N-(3-(4-chlorobenzyl)-1,2,4-thiadiazol-5-yl)-N′-(2,5-dimethoxybenzyl) spiro[3.3]heptane-2,6-diamine] | 9.9 nM
40 | COc1cccc(CN2CC3(C2)CN(C(=O)NC2CCCC2)C3)c1 [Cpd B183] | < 0.19 nM
41 | O=C(Cc1ccc(F)cc1)N1CC2(CN(Cc3ccccc3Cl)C2)C1 [Cpd B018, 1-[6-(2-Chloro-benzyl)-2,6-diaza-spiro[3.3]hept-2-yl]-2-(4-fluoro-phenyl)-ethanone] | 0.97 nM
42 | Cc1cc(CNC2CC3(C2)CC(Nc2nc(Cc4ccc(Cl)cc4)ns2)C3)ccc1F (stereo not shown) [Cpd B309, N-(3-(4-chlorobenzyl)-1,2,4-thiadiazol-5-yl)-N′-(4-fluoro-3-methylbenzyl) spiro[3.3]heptane-2,6-diamine] | 12 nM
43 | O=C(Cc1ccc(Cl)cc1)N1CC2(CN(CCc3ccc(F)cc3)C2)C1 [Cpd B048, 2-(4-chlorophenyl)-1-(6-(4-fluorophenethyl)-2,6-diazaspiro[3.3]heptan-2-yl)ethanone] | 8.85 nM

From patent US20250388592A1 (REMYND N.V., priority 2022, published 2025)
